Laboratory results: US4818764A, “Imidazoline derivative and method of treating depression therewith” (priority 1980, dated 1989)
Entries after “also recorded” stand apart in the source; their conditions may differ. Counter-ions that a name gives are not always drawn.

What was measured:
[1] = molecular target: T1, presynaptic α2-adrenoreceptor (rat vas deferens) (Rattus norvegicus, UniProt P22909); test: Presynaptic α-adrenoreceptor antagonism vs clonidine in isolated rat vas deferens (0.1 Hz stimulation); type: cell-based
T1 construct: Pre- and postsynaptic α-adrenoreceptor antagonism in isolated tissue experiments; from tissue; host or cells: isolated rat vas deferens
T1 sequence (P22909 1-465): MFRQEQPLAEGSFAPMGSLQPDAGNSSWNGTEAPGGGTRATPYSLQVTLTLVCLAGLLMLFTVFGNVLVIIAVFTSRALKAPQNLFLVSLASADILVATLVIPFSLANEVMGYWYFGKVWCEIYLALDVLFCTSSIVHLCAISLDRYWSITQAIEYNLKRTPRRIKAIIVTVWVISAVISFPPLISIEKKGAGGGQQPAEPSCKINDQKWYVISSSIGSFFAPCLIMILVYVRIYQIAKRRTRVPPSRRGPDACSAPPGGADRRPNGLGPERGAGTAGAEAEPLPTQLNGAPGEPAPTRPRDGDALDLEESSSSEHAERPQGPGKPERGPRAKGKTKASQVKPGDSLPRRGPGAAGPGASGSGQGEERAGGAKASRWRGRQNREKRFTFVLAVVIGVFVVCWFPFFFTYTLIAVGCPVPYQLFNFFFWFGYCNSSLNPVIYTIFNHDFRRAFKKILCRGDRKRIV
Source text: (§1) This in vitro model is particularly useful as an initial screen for studying presynaptic activity in isolation since the physiological nature of the vas deferens tissue is such that the post synaptic receptors located therein are particularly inaccessible to exogenous agents. In consequence an alternative tissue, the rat anococcygeus muscle is used to establish postsynaptic α-adrenoreceptor activity. Antagonism of noradrenaline contractions is used to determine pA2 values at postsynaptic α-adrenoreceptors. The ratio of presynaptic α-adrenoreceptor antagonism (versus clonidine on the rat vas deferens) to postsynaptic α-adrenoreceptor antagonism (versus noradrenaline contractions on the rat anococcygeus muscle) is used to assess adrenoreceptor selectivity.

[2] = system: postsynaptic α-adrenoreceptors (rat anococcygeus muscle); test: Postsynaptic α-adrenoreceptor antagonism vs noradrenaline contractions in isolated rat anococcygeus muscle; type: cell-based; settings: mean of minimum 5 experiments, "<" means inactive at a concentration which would have given the pA indicated
Source text: as §1

[3] = system: presynaptic α-adrenoreceptor; test: Presynaptic α-adrenoreceptor antagonism in the pithed rat: vas deferens, intravenous activity; type: in vivo; settings: for i.v. dose of antagonist causing 50% reversal of clonidine block on vas deferens: pithed rat, clonidine 100 μg/kg i.v., cumulative i.v. dosing, mean of minimum 4 rats
Procedure: This test model extends the evaluation of presynaptic α-adrenoreceptor antagonism versus clonidine on the rat vas deferens to the in vivo situation. Blood pressure and stimulation induced contractions of the vas deferens were monitored in pithed rats using the method of Brown, J., Doxey, J. C., Handley, S. and Virdee, N., Recent Advances in the Pharmacology of Adrenoceptors, Elsevier North Holland, 1978. Clonidine (100 μg/kg, i.v.) causes a prolonged pressor response and a prolonged inhibition of vas deferens contractions. The test drugs were injected intravenously in a cumulative dosing schedule and their abilities to reverse the inhibition of hypogastric nerve stimulation reflected their presynaptic antagonism.

[4] = system: presynaptic α-adrenoreceptor; test: Presynaptic α-adrenoreceptor antagonism in the pithed rat: vas deferens, oral activity; type: in vivo; settings: 1.0 and 5.0 mg/kg
Source text: Thirty minutes after oral administration, the rats were pithed so as to allow electrically-induced contractions of the vas deferens to be studied in situ.

[5] = system: postsynaptic α-adrenoreceptor; test: Antagonism of clonidine postsynaptic effects (blood pressure increases) after oral dosing, pithed rat; type: in vivo
[6] = system: presynaptic α-adrenoreceptor; test: Reversal of guanabenz block of the anococcygeus muscle of the pithed rat, intravenous; type: in vivo; settings: for Intravenous dose of antagonist causing 50% reversal of guanabenz block of anococcygeus muscle: pithed rat, guanabenz acetate 30 μg/kg i.v.
DOCA hypertensive rats = test: Effect on blood pressure and heart rate of conscious DOCA hypertensive rats; type: in vivo, rat
Source text: Results are given in Table 5 in terms of peak percentage fall in B.P.

[7] = system: clonidine-induced hypothermia; test: Antagonism of clonidine-induced hypothermia in mice; type: in vivo
[8] = system: postsynaptic α-adrenoreceptor; test: Pressor responses in the pithed rat on intravenous administration; type: in vivo; settings: 1-10 mg/kg, i.v.
[9] = system: presynaptic α-adrenoreceptor; test: Reversal of clonidine inhibition of the anococcygeus muscle of the pithed rat, intravenous; type: in vivo; settings: 0.3-1.0 mg/kg, i.v.; 1 Hz stimulation
Source text: In contrast to the rat vas deferens, both the pre- and postsynaptic adrenoreceptors of the rat anococcygeus muscle are readily accessible to exogenously applied agents and therefore this test can be used to distinguish selective presynaptic α-adrenoreceptor antagonists from non-selective agents. Contractions of the rat anococcygeus muscle induced by low frequency (1 Hz) electrical stimulation of spinal sympathetic outflow are inhibited by low doses of clonidine. Only selective presynaptic α-adrenoreceptor antagonists will reverse the inhibitory effects of clonidine.

## c1ccc2c(c1)OCC(C1=NCCN1)O2 (stereo not drawn) [Compound A, 2-[2-(1,4-Benzodioxanyl)]-2-imidazoline hydrochloride]
[1]; Table 1
  presynaptic α-adrenoreceptor antagonist potency, rank among compounds studied: the most potent presynaptic α-adrenoreceptor antagonist
[2]
  Postsynaptic antagonism pA2 vs Noradrenaline (anococcygeus): 6.2
[3]; pithed rat vas deferens, i.v., Table 2
  presynaptic α-adrenoreceptor antagonist potency, rank among compounds studied: clearly the most potent presynaptic α-adrenoreceptor antagonist of those studied
[3]
  i.v. dose of antagonist causing 50% reversal of clonidine block on vas deferens: 0.009 mg/kg
[4]
  antagonism of the presynaptic action of clonidine (in words): dose-dependent competitive antagonism
[5]; 1.0 mg/kg p.o.
  inhibition of the clonidine postsynaptic effects (blood pressure increases): No inhibition
[5]; 5.0 mg/kg p.o.
  inhibition of the clonidine postsynaptic effects (blood pressure increases): some antagonism was observed
[6]; pithed rat anococcygeus, i.v.
  presynaptic α-adrenoreceptor antagonist potency, rank among compounds studied: the most potent presynaptic α-adrenoreceptor antagonist studied
[6]
  Intravenous dose of antagonist causing 50% reversal of guanabenz block of anococcygeus muscle: 0.021 mg/kg
DOCA hypertensive rats; 1.0 mg/kg, oral
  peak percentage fall in B.P.: -4%
DOCA hypertensive rats; 1.0 mg/kg, oral, hydrochloride
  blood pressure effect (in words): did not significantly alter blood pressure; also recorded: does not possess antihypertensive activity
DOCA hypertensive rats; 5.0 mg/kg, oral
  peak percentage fall in B.P.: -28%
DOCA hypertensive rats; 20.0 mg/kg, oral
  peak percentage fall in B.P.: -39%
DOCA hypertensive rats; 5.0 and 20.0 mg/kg, oral, hydrochloride
  mean arterial blood pressure effect (in words): dose-related falls in mean arterial blood pressure
DOCA hypertensive rats; three doses (1.0, 5.0 and 20.0 mg/kg), oral
  heart rate effect (in words): No significant effect on heart rate
[7]; 0.1-1.0 mg/kg, i.v.
  reversal of clonidine-induced hypothermia (in words): statistically significant dose-related reversal

## CC1(C2=NCCN2)Oc2ccccc2O1 [Compound B, 2-[2-(2-methyl-1,3-benzodioxyl)]-2-imidazoline hydrochloride]
[1]; isolated rat vas deferens, 0.1 Hz, mean of minimum 5 experiments, "<" means inactive at a concentration which would have given the pA indicated, read-out: Presynaptic antagonism pA2 vs Clonidine (vas deferens) (converted)
  Kb: 631 nM
[1]; presynaptic antagonism (vs clonidine, vas deferens) to postsynaptic antagonism (vs noradrenaline, anococcygeus)
  Pre/postsynaptic ratio: > 67
[2]
  Postsynaptic antagonism pA2 vs Noradrenaline (anococcygeus): < 4.4
[3]; cumulative i.v. dose 14.4 mg/kg
  maximum reversal of the inhibitory effects of clonidine on hypogastric nerve stimulation: 66%
[3]
  i.v. dose of antagonist causing 50% reversal of clonidine block on vas deferens: 5.60 mg/kg
DOCA hypertensive rats; 1.0 mg/kg, oral
  blood pressure effect (in words): significant antihypertensive effect
  peak percentage fall in B.P.: -15%
DOCA hypertensive rats; 5.0 mg/kg, oral
  peak percentage fall in B.P.: -25%
DOCA hypertensive rats; 20.0 mg/kg, oral
  peak percentage fall in B.P.: -14%
DOCA hypertensive rats; 20 mg/kg, p.o. versus 5 mg/kg, p.o.
  maximum hypotensive effect following 20 mg/kg (in words): less than that produced by 5 mg/kg, p.o. compound B
DOCA hypertensive rats; 1-20 mg/kg, p.o.
  dose-relation of the falls in blood pressure (in words): not dose-related
[8]
  pressor responses / postsynaptic α-adrenoreceptor agonist activity (in words): pressor responses in the pithed rat were seen
[7]; 30 mg/kg i.v.
  effect on clonidine-induced hypothermia (in words): potentiated the clonidine-induced hypothermia
[7]; 1-10 mg/kg, i.v.
  reversal of clonidine-induced hypothermia (in words): partial reversal
  reversal of clonidine-induced hypothermia compared with vehicle (significance, in words): not significantly different from animals treated with vehicle

## CN1CCN2c3ccccc3Cc3ccccc3C2C1 (stereo not drawn) [Mianserin HCl]
[3]
  i.v. dose of antagonist causing 50% reversal of clonidine block on vas deferens: > 4.4 mg/kg

## CN1CCN2c3ccccc3Cc3ccccc3C2C1 (stereo not drawn) [Mianserin]
[3]; cumulative i.v. dose 4.4 mg/kg
  maximum reversal of the inhibitory effects of clonidine on hypogastric nerve stimulation: 36%

## Cc1ccc(N(CC2=NCCN2)c2cccc(O)c2)cc1 [Phentolamine mesylate]
[3]
  i.v. dose of antagonist causing 50% reversal of clonidine block on vas deferens: 0.12 mg/kg
[6]
  Intravenous dose of antagonist causing 50% reversal of guanabenz block of anococcygeus muscle: > 1.4 mg/kg

## Cc1ccc(N(CC2=NCCN2)c2cccc(O)c2)cc1 [Phentolamine]
[6]; cumulative i.v. dose of 1.4 mg/kg
  presynaptic α-adrenoreceptor antagonist activity (in words): devoid of presynaptic α-adrenoreceptor antagonist activity
DOCA hypertensive rats; 1.0 mg/kg, oral
  blood pressure effect (in words): reduced blood pressure
  peak percentage fall in B.P.: -16%
DOCA hypertensive rats; 5.0 mg/kg, oral
  peak percentage fall in B.P.: -24%
DOCA hypertensive rats; 20 mg/kg, oral
  heart rate effect (in words): reflexly elevated
DOCA hypertensive rats; 20.0 mg/kg, oral
  peak percentage fall in B.P.: -41%
DOCA hypertensive rats; two smaller doses (1.0 and 5.0 mg/kg), oral
  heart rate effect (in words): not greatly affected

## COC(=O)[C@@H]1[C@H]2C[C@H]3c4[nH]c5ccccc5c4CCN3C[C@@H]2CC[C@@H]1O [Yohimbine HCl]
[3]
  i.v. dose of antagonist causing 50% reversal of clonidine block on vas deferens: 0.86 mg/kg
[6]
  Intravenous dose of antagonist causing 50% reversal of guanabenz block of anococcygeus muscle: 0.280 mg/kg

## COC(=O)[C@@H]1[C@H]2C[C@H]3c4[nH]c5ccccc5c4CCN3C[C@@H]2CC[C@@H]1O [Yohimbine]
[9]
  reversal of the inhibitory action of clonidine on the anococcygeus muscle: fully reversed
